# In paper PMC9098913, “In vitro reconstitution of Escherichia coli divisome activation” (Nature Communications, 2022):
# Test: Diffusion coefficient (Dcoeff) of FtsA from FRAP
# Conditions: for Diffusion Coefficient, mean: Fig. 3j
# Source text: We could also use the data from these bleaching experiments to quantify the membrane-binding kinetics and diffusion of membrane-bound proteins by analysing the change of the fluorescence profile during recovery.
# Equimolar concentrations of Cy3- and Cy5-labelled FtsA, supplemented with 20% unlabelled FtsA were used to study FRET and FRAP. Five pre-bleach frames were acquired, followed by acceptor photobleaching of a rectangular ROI with 40% 641 nm laser power and a dwell size of 1 µs/pixel, 75% overlapping lines. The recovery of the signal or the increase in donor intensity were measured with either two frames or one frame per second.
# Bleaching the acceptor dye leads to an increase in the donor intensity, which can be used to quantify the Foerster Resonance energy transfer (FRET)[48]. FRET efficiency was quantified with E%=Ipost/Ipost+Ipre⋅100 , where Ipost is the intensity of the […] and Ipre is the […]. […] To extract the contribution of both processes, we adjusted a routine recently published by Gerganova et al.[33]. In short, the code provides the contribution of both modes of recovery by analysing the shape of the fluorescence recovery profile. […] Contribution of diffusion leads to a change of the slope of the outer borders of the bleached region (S4h right). Thus, by measuring the change of the slope of the border recovery, diffusion and simple on/off binding can be distinguished. We developed “FRAPdiff”, a graphical user interface, which uses the original fit routine by David Rutkowski. It can be used directly on.tiff movies with annotated bleach regions as ImageJ ROIs. In addition, we added optional bleach correction, user selectable projection axis (x or y), and optional mirroring of the recovery profiles, if bleaching was not symmetric. The original fit routine for estimating the recovery and diffusion dynamics can be found at https://github.com/davidmrutkowski/1DReflectingDiffusion. FRAPdiff is available at 10.5281/zenodo.6400639[49] under the GPLv3 open-source license.
substance,measurement,setting,value
"FtsA WT: wild-type E. coli actin-homologue FtsA, membrane anchor of FtsZ","Diffusion Coefficient, mean",0.1 µM FtsA + N,1.61E-02 µm2/s
same,"Diffusion Coefficient, mean",0.1 µM FtsA + Z&N,1.18E-02 µm2/s
same,"Diffusion Coefficient, mean",0.1 µM FtsA + Z,1.69E-02 µm2/s
same,Diffusion Coefficient,"0.1µM FtsA alone, Mean, n=18 (WT), 6 (R286W)",0.0268
same,"Diffusion Coefficient, mean",0.1 µM FtsA alone,2.68E-02 µm2/s
same,Diffusion Coefficient,"0.1µM FtsA alone, replicate Exp.1",5.58E-02
same,Diffusion Coefficient,"0.1µM FtsA alone, replicate Exp.10",2.60E-03
same,Diffusion Coefficient,"0.1µM FtsA alone, replicate Exp.11",5.85E-03
same,Diffusion Coefficient,"0.1µM FtsA alone, replicate Exp.12",4.68E-03
same,Diffusion Coefficient,"0.1µM FtsA alone, replicate Exp.13",4.29E-02
same,Diffusion Coefficient,"0.1µM FtsA alone, replicate Exp.14",3.12E-02
same,Diffusion Coefficient,"0.1µM FtsA alone, replicate Exp.15",2.09E-02
same,Diffusion Coefficient,"0.1µM FtsA alone, replicate Exp.16",1.45E-02
same,Diffusion Coefficient,"0.1µM FtsA alone, replicate Exp.17",4.66E-02
same,Diffusion Coefficient,"0.1µM FtsA alone, replicate Exp.18",2.25E-02
same,Diffusion Coefficient,"0.1µM FtsA alone, replicate Exp.2",3.42E-03
same,Diffusion Coefficient,"0.1µM FtsA alone, replicate Exp.3",1.87E-02
same,Diffusion Coefficient,"0.1µM FtsA alone, replicate Exp.4",5.22E-02
same,Diffusion Coefficient,"0.1µM FtsA alone, replicate Exp.5",2.45E-02
same,Diffusion Coefficient,"0.1µM FtsA alone, replicate Exp.6",4.34E-02
same,Diffusion Coefficient,"0.1µM FtsA alone, replicate Exp.7",4.83E-02
same,Diffusion Coefficient,"0.1µM FtsA alone, replicate Exp.8",3.63E-02
same,Diffusion Coefficient,"0.1µM FtsA alone, replicate Exp.9",8.38E-03
same,Diffusion Coefficient,"0.1µM, + FtsN&Z, Mean, n=5 (WT), 3 (R286W)",0.0118
same,Diffusion Coefficient,"0.1µM, + FtsN&Z, replicate Exp.1",3.37E-03
same,Diffusion Coefficient,"0.1µM, + FtsN&Z, replicate Exp.2",5.52E-03
same,Diffusion Coefficient,"0.1µM, + FtsN&Z, replicate Exp.3",9.34E-03
same,Diffusion Coefficient,"0.1µM, + FtsN&Z, replicate Exp.4",2.03E-02
same,Diffusion Coefficient,"0.1µM, + FtsN&Z, replicate Exp.5",2.02E-02
same,Diffusion Coefficient,"0.1µM, + FtsN, Mean, n=5 (WT), 3 (R286W)",0.0161
same,Diffusion Coefficient,"0.1µM, + FtsN, replicate Exp.1",2.03E-02
same,Diffusion Coefficient,"0.1µM, + FtsN, replicate Exp.2",6.39E-04
same,Diffusion Coefficient,"0.1µM, + FtsN, replicate Exp.3",1.18E-02
same,Diffusion Coefficient,"0.1µM, + FtsN, replicate Exp.4",1.64E-02
same,Diffusion Coefficient,"0.1µM, + FtsN, replicate Exp.5",3.14E-02
same,Diffusion Coefficient,"0.1µM, + FtsZ, Mean, n=8 (WT), 4 (R286W)",0.0169
same,Diffusion Coefficient,"0.1µM, + FtsZ, replicate Exp.1",1.01E-02
same,Diffusion Coefficient,"0.1µM, + FtsZ, replicate Exp.2",2.79E-03
same,Diffusion Coefficient,"0.1µM, + FtsZ, replicate Exp.3",1.71E-02
same,Diffusion Coefficient,"0.1µM, + FtsZ, replicate Exp.4",3.53E-02
same,Diffusion Coefficient,"0.1µM, + FtsZ, replicate Exp.5",2.97E-02
same,Diffusion Coefficient,"0.1µM, + FtsZ, replicate Exp.6",3.44E-03
same,Diffusion Coefficient,"0.1µM, + FtsZ, replicate Exp.7",2.52E-02
same,Diffusion Coefficient,"0.1µM, + FtsZ, replicate Exp.8",1.14E-02
same,"Diffusion Coefficient, mean",0.2 µM FtsA + N,1.32E-02 µm2/s
same,"Diffusion Coefficient, mean",0.2 µM FtsA + Z&N,7.76E-03 µm2/s
same,"Diffusion Coefficient, mean",0.2 µM FtsA + Z,8.12E-03 µm2/s
same,Diffusion Coefficient,"0.2µM FtsA alone, Mean, n=24 (WT), 6 (R286W)",0.0177
same,"Diffusion Coefficient, mean",0.2 µM FtsA alone,1.77E-02 µm2/s
same,Diffusion Coefficient,"0.2µM FtsA alone, replicate Exp.1",1.00E-02
same,Diffusion Coefficient,"0.2µM FtsA alone, replicate Exp.10",2.11E-07
same,Diffusion Coefficient,"0.2µM FtsA alone, replicate Exp.11",2.08E-02
same,Diffusion Coefficient,"0.2µM FtsA alone, replicate Exp.12",4.11E-02
same,Diffusion Coefficient,"0.2µM FtsA alone, replicate Exp.13",2.52E-02
same,Diffusion Coefficient,"0.2µM FtsA alone, replicate Exp.14",2.77E-02
same,Diffusion Coefficient,"0.2µM FtsA alone, replicate Exp.15",1.77E-05
same,Diffusion Coefficient,"0.2µM FtsA alone, replicate Exp.16",1.11E-02
same,Diffusion Coefficient,"0.2µM FtsA alone, replicate Exp.17",1.44E-03
same,Diffusion Coefficient,"0.2µM FtsA alone, replicate Exp.18",2.14E-02
same,Diffusion Coefficient,"0.2µM FtsA alone, replicate Exp.19",1.18E-02
same,Diffusion Coefficient,"0.2µM FtsA alone, replicate Exp.2",4.63E-02
same,Diffusion Coefficient,"0.2µM FtsA alone, replicate Exp.20",1.47E-02
same,Diffusion Coefficient,"0.2µM FtsA alone, replicate Exp.21",5.71E-03
same,Diffusion Coefficient,"0.2µM FtsA alone, replicate Exp.22",9.23E-03
same,Diffusion Coefficient,"0.2µM FtsA alone, replicate Exp.23",4.39E-06
same,Diffusion Coefficient,"0.2µM FtsA alone, replicate Exp.24",1.05E-03
same,Diffusion Coefficient,"0.2µM FtsA alone, replicate Exp.3",3.82E-02
same,Diffusion Coefficient,"0.2µM FtsA alone, replicate Exp.4",2.69E-04
same,Diffusion Coefficient,"0.2µM FtsA alone, replicate Exp.5",3.65E-02
same,Diffusion Coefficient,"0.2µM FtsA alone, replicate Exp.6",2.63E-02
same,Diffusion Coefficient,"0.2µM FtsA alone, replicate Exp.7",1.83E-02
same,Diffusion Coefficient,"0.2µM FtsA alone, replicate Exp.8",5.09E-02
same,Diffusion Coefficient,"0.2µM FtsA alone, replicate Exp.9",5.70E-03
same,Diffusion Coefficient,"0.2µM, + FtsN&Z, Mean, n=8 (WT), 6 (R286W)",0.0078
same,Diffusion Coefficient,"0.2µM, + FtsN&Z, replicate Exp.1",1.04E-02
same,Diffusion Coefficient,"0.2µM, + FtsN&Z, replicate Exp.2",2.82E-03
same,Diffusion Coefficient,"0.2µM, + FtsN&Z, replicate Exp.3",5.82E-03
same,Diffusion Coefficient,"0.2µM, + FtsN&Z, replicate Exp.4",1.62E-02
same,Diffusion Coefficient,"0.2µM, + FtsN&Z, replicate Exp.5",5.88E-03
same,Diffusion Coefficient,"0.2µM, + FtsN&Z, replicate Exp.6",3.75E-03
same,Diffusion Coefficient,"0.2µM, + FtsN&Z, replicate Exp.7",5.36E-03
same,Diffusion Coefficient,"0.2µM, + FtsN&Z, replicate Exp.8",1.18E-02
same,Diffusion Coefficient,"0.2µM, + FtsN, Mean, n=7 (WT), 4 (R286W)",0.0132
same,Diffusion Coefficient,"0.2µM, + FtsN, replicate Exp.1",1.41E-02
same,Diffusion Coefficient,"0.2µM, + FtsN, replicate Exp.2",1.35E-02
same,Diffusion Coefficient,"0.2µM, + FtsN, replicate Exp.3",8.81E-03
same,Diffusion Coefficient,"0.2µM, + FtsN, replicate Exp.4",1.88E-02
same,Diffusion Coefficient,"0.2µM, + FtsN, replicate Exp.5",1.36E-02
same,Diffusion Coefficient,"0.2µM, + FtsN, replicate Exp.6",1.15E-02
same,Diffusion Coefficient,"0.2µM, + FtsN, replicate Exp.7",1.21E-02
same,Diffusion Coefficient,"0.2µM, + FtsZ, Mean, n=7 (WT), 6 (R286W)",0.0081
same,Diffusion Coefficient,"0.2µM, + FtsZ, replicate Exp.1",8.42E-03
same,Diffusion Coefficient,"0.2µM, + FtsZ, replicate Exp.2",4.10E-03
same,Diffusion Coefficient,"0.2µM, + FtsZ, replicate Exp.3",4.88E-04
